The SangsterLogP compilation

Tests used:
[1] = method code SF, from DOI: 10.1002/em.2850190108, PMID: 1732104
[2] = not given; remark: listed apart in the source
[3] = method code SF-GLC, from DOI: 10.1007/bf00343116, PMID: 4026577
[4] = method code SF-RC, from DOI: 10.1002/ps.2780130506
[5] = method code SF, from DOI: 10.1021/js9700917, PMID: 9452977; settings: pH 5.5
[6] = method code SF-GLC, from Boikov, Yu.; Shibaev, V.; Gaidamaka, V.; V'yunov, K. (1989). Study of correlation between extraction characteristics of glycidyl ethers and theri structure. 62(1)177-179.
[7] = method code SF-CR+AS, from DOI: 10.1016/s0003-2670(00)84151-3
[8] = method code SF-AS, from DOI: 10.1007/bf02922495
[9] = not given; remark: listed apart in the source
[10] = method code SF-RC, from DOI: 10.1021/jm901332c, PMID: 19921956; settings: pH 7.4
[11] = method code SF-AS, from DOI: 10.1007/s001289900158, PMID: 8661463
[12] = method code SF-HPLC, from DOI: 10.1002/jps.2600750520, PMID: 3735094; settings: pH 4.0
[13] = method code SF-AS, from DOI: 10.1002/1521-3838(200111)20:4<291::aid-qsar291>3.0.co;2-q
[14] = method code SF-GLC, from DOI: 10.1016/s0021-9673(01)83612-8; settings: pH 13.0
[15] = not given; remark: listed apart in the source
[16] = not given; remark: listed apart in the source
[17] = not given; remark: listed apart in the source
[18] = method code SF-AS, from DOI: 10.1016/0378-5173(82)90004-7; settings: pH 3.0
[19] = method code SF, from DOI: 10.1021/jm00378a018, PMID: 6389865; settings: pH 7.0
[20] = not given; remark: listed apart in the source
[21] = method code SF-HPLC, from DOI: 10.1007/bf00269028, PMID: 6488439
[22] = method code SF, from DOI: 10.1016/s0045-6535(97)00338-x
[23] = not given; remark: listed apart in the source
[24] = not given; remark: listed apart in the source
[25] = not given; remark: listed apart in the source
[26] = method code SF-AS, from Ganga, L. X. J. S., & Zun-Yaob, L. H. W. (2009). Determination of lgKow and QSPR Study on Some Fluorobenzene Derivatives. Jiegou Huaxue, 28(10).
[27] = method code SF-HPLC, from DOI: 10.1016/0378-5173(82)90005-9; settings: pH 3.0
[28] = method code SF, from DOI: 10.1016/j.jiec.2010.03.003

With `O=[N+]([O-])c1ccc2c3c(cccc13)CC2` the logP [1] was 3.85.

Compound `CCCC(O)CC` (stereo not drawn) has a logP of 1.65.

`CCCCCCC(C)O` (stereo not drawn) gave a logP of 2.9.

For `Cc1ccc(Cl)cc1O`, the logP [2] was 2.63.

Work on `N#CCCCCC#N` yielded a logP [3] of -0.32.

`NC(=O)Nc1ccc(Oc2ccc(Br)cc2)cc1` showed a logP [4] of 3.7.

`NC(=S)NS(=O)(=O)c1ccc(N)cc1` showed a logD [5] of 0.52.

With `COc1ccc(OC)cc1` the logP [2] was 2.03.

For `CC(C)OCC1CO1` (stereo not drawn), the logP [6] was 0.8.

`NC(=S)c1ccc([N+](=O)[O-])cc1` showed a logP [7] of 1.75.

With `N#CC(C#N)=Cc1ccco1` the logP [8] was 1.5.

Compound `CCS(=O)(=O)CCn1c([N+](=O)[O-])cnc1C` has a logP [9] of -0.38.

`Cn1cnc2c(F)ncnc21` gave a logD [10] of 0.11.

`O=[N+]([O-])c1c(Cl)ncnc1Cl` showed a logP [11] of 0.45.

With `CNC(=O)ON=C(C)C` the logP [4] was -0.13.

Work on `CCCCOC(=O)n1cc(F)c(=O)[nH]c1=O` yielded a logD [12] of 0.89.

`CC1CCCC(C)C1O` (stereo not drawn) gave a logP of 2.37.

`S=c1[nH]nc(-c2ccc(Cl)cc2)o1` showed a logP [13] of 3.66.

Work on `N#CCCC#N` yielded a logP [3] of -0.99.

In the case of `CC(N)CC1CCCCC1` (stereo not drawn), the logD [14] is reported as 2.96.

`CCN(CC)c1nc(C)cc(OP(=S)(OC)OC)n1` gave a logP [15] of 3.8.

`Nc1cccc2cccnc12` showed a logP [16] of 1.79.

Work on `Fc1cccc(F)c1` yielded a logP [17] of 2.33.

`Cn1cnc2ncnc(Br)c21` showed a logD [10] of 0.2.

Work on `O=C1NC(=O)C(c2ccccc2)(c2ccccc2)C(=O)N1` yielded a logD [18] of 1.96.

In the case of `COC(=O)c1nc(NCC(O)CO)cnc1[N+](=O)[O-]` (stereo not drawn), the logD [19] is reported as -0.1.

`NNc1nc(NN)nc(Nc2ccccc2)n1` showed a logP [11] of 1.07.

Work on `C[C@@H]1CCCC[C@H]1O` yielded a logP of 1.82.

With `CCCCCCCCCCCCN1CC(C(=O)OC)CC1=O` (stereo not drawn) the logP [20] was 4.

Work on `O=C1Nc2ccc([N+](=O)[O-])cc2C1=O` yielded a logP [1] of 0.47.

Work on `C=CCC1(C)C(=O)NC(=O)NC1=O` yielded a logD [18] of 0.36.

With `CCCOCC1CO1` (stereo not drawn) the logP [6] was 0.5.

Work on `NC(=S)N/N=C\c1ccco1` yielded a logP [9] of 1.64.

Compound `O=[N+]([O-])c1cnc(NC(CO)C(O)CO)cn1` (stereo not drawn) has a logD [19] of -0.89.

For `CC1(c2ccccc2)C(=O)NC(=O)NC1=O`, the logD [18] was 0.91.

`COC(=O)C(C#N)=Cc1ccc(Cl)o1` gave a logP [8] of 2.4.

Work on `Cc1c[nH]c(=O)[nH]c1=O` yielded a logP [21] of -0.57.

`O=[N+]([O-])c1ccc(/C=N\O)o1` showed a logP [9] of 0.3.

`CC(=O)c1cc(F)c(Cl)cc1Cl` showed a logP [22] of 3.4.

`O=[N+]([O-])c1cccc(O)c1` showed a logP [23] of 1.88.

`OCc1ccccc1I` showed a logP [17] of 2.43.

For `NC(=S)c1ccc(Cl)cc1`, the logP [7] was 2.4.

For `O=[N+]([O-])c1ccc(Cl)nc1Cl`, the logP [11] was 1.96.

For `ClC(Cl)=C(Cl)c1c(Cl)c(Cl)c(Cl)c(Cl)c1Cl`, the logP [24] was 6.29.

For `O=C(O)c1cc(Cl)nc(Cl)c1`, the logP [25] was 2.6.

In the case of `N#CC(C#N)=Cc1ccc(Cl)o1`, the logP [8] is reported as 2.17.

For `Cc1ccc(C(N)=S)cc1`, the logP [7] was 2.01.

In the case of `Cn1cnc2ncnc(Cl)c21`, the logD [10] is reported as 0.03.

For `CC(=O)Nc1ccc(S(=O)(=O)Nc2cc(C)nc(C)n2)cc1`, the logD [5] was -0.14.

Work on `Nc1ccc(Sc2ccccc2)cc1` yielded a logP [16] of 2.18.

`CNC(=O)ON=Cc1ccc(Cl)cc1` showed a logP [4] of 2.27.

`CC(=O)Nc1ccc(S(=O)(=O)Nc2nc(C)c(C)o2)cc1` showed a logD [5] of 0.46.

For `Nc1ccn([C@@H]2O[C@@H]3CO[C@H]2[C@@H]3O)c(=O)n1`, the logP [21] was -1.64.

For `N#Cc1ccccc1[N+](=O)[O-]`, the logP [23] was 1.16.

In the case of `O=C(O)c1cc(Br)nc(Br)c1`, the logP [25] is reported as 2.8.

With `NC(=S)N/N=C/c1ccc([N+](=O)[O-])o1` the logP [9] was 1.64.

In the case of `CN1CC(C(=O)O)CC1=O` (stereo not drawn), the logP [20] is reported as -1.5.

For `Nc1ccc(Cl)cc1N`, the logP [16] was 1.28.

With `Fc1ccccc1F` the logP [26] was 2.1.

`O=[N+]([O-])c1nccnc1NCC(O)CO` (stereo not drawn) showed a logD [19] of -0.49.

In the case of `N#CCCCCCCCCC#N`, the logP [3] is reported as 1.75.

Compound `CCCCCCN1CC(C(=O)O)CC1=O` (stereo not drawn) has a logP [20] of 1.6.

Compound `Nc1ccc(F)c(F)c1F` has a logP [22] of 2.14.

`CCCCCC(C)N` (stereo not drawn) gave a logD [14] of 2.4.

`COc1ccc(C(N)=S)cc1` showed a logP [7] of 1.63.

`Fc1ccc(F)c(F)c1` showed a logP [26] of 2.34.

In the case of `CNC(=O)O/N=C/c1ccccc1`, the logP [4] is reported as 1.49.

Work on `OCc1ccccc1Br` yielded a logP [17] of 2.08.

Compound `CCCCCCN1CCCC1=O` has a logP [20] of 2.6.

`CCOC(=O)n1cc(F)c(=O)[nH]c1=O` showed a logD [12] of -0.17.

With `O=C1NC(=O)C2(CCCCC2)C(=O)N1` the logD [27] was 0.91.

`N#CCCCC#N` showed a logP [3] of -0.72.

`CCOC(=O)CC(SP(=S)(OC)OC)C(=O)OCC` (stereo not drawn) gave a logP [15] of 2.18.

With `Clc1ccc2c(ccc3ccccc32)c1` the logP [24] was 5.16.

For `COCC1CO1` (stereo not drawn), the logP [6] was 0.03.

`Fc1cc(F)c(F)cc1F` gave a logP [26] of 2.44.

Compound `C=COCCC` has a logP [28] of 2.

In the case of `COc1c(Br)cc(Br)cc1Br`, the logP [24] is reported as 4.48.

`COc1ccc(N)c([N+](=O)[O-])c1` gave a logP [2] of 1.86.

Work on `COc1ccc(C)cc1N` yielded a logP [16] of 1.74.

In the case of `COC(=O)/C(C#N)=C/c1ccco1`, the logP [8] is reported as 1.75.

`CCCCOCC1CO1` (stereo not drawn) showed a logP [6] of 0.55.

`CCNc1nc(Cl)nc(NC(C)C)n1` gave a logP [24] of 2.63.

`CCOC(C)(C)C` gave a logP [28] of 1.71.

For `Nc1ccc(F)cc1`, the logP [22] was 1.18.

`CCOC(=O)c1cc(Cl)nc(Cl)c1` showed a logP [25] of 3.6.

Work on `Nc1cc[nH]c(=O)n1` yielded a logP [21] of -1.49.

`Nc1nc(NCCO)c(Cl)nc1[N+](=O)[O-]` gave a logD [19] of 0.12.

In the case of `COc1cccc(Cl)c1`, the logP [2] is reported as 2.98.

`CC1Cc2ccccc2CN1` (stereo not drawn) gave a logD [14] of 1.93.

`Cn1cnc2ncnc(F)c21` gave a logD [10] of -0.62.

For `Clc1ccc(Cl)nn1`, the logP [11] was 0.93.

For `COP(=S)(OC)Oc1nc(Cl)c(Cl)cc1Cl`, the logP [15] was 3.99.

In the case of `O=C1NC(=O)C2(CCCC2)C(=O)N1`, the logD [27] is reported as 0.24.

`COC(=O)n1cc(F)c(=O)[nH]c1=O` showed a logD [12] of -0.68.

`CC(C)COC(=O)n1cc(F)c(=O)[nH]c1=O` gave a logD [12] of 0.87.

Compound `CCC1(C)C(=O)NC(=O)NC1=O` has a logD [18] of 0.08.

Work on `CC(=O)c1ccc(F)cc1` yielded a logP [22] of 1.74.

`Cc1ccc2cccc([N+](=O)[O-])c2n1` gave a logP [1] of 1.99.

`O=C(O)c1nc(Cl)ccc1Cl` gave a logP [25] of 1.06.

`CN(C)C(=O)Nc1ccccc1` gave a logP [15] of 1.18.

In the case of `CC(C)OC(C)C`, the logP [28] is reported as 1.94.

`CNC1CCc2ccccc2C1` (stereo not drawn) gave a logD [14] of 2.38.

For `N#Cc1ccc([N+](=O)[O-])cc1`, the logP [23] was 1.25.

Work on `Clc1ccccc1` yielded a logP [23] of 2.73.

Work on `Oc1ccc(F)cc1F` yielded a logP [26] of 1.9.

Compound `O=C1NC(=O)C2(CC2)C(=O)N1` has a logD [27] of -0.53.

Compound `CCC(C)(C)OC` has a logP [28] of 1.81.

`NS(=O)(=O)c1ccncn1` showed a logD [5] of -0.2.

Work on `Nc1c(F)cccc1F` yielded a logP [17] of 1.61.

Compound `O=[N+]([O-])c1cc([N+](=O)[O-])c2ccccc2c1` has a logP [1] of 2.83.

`O=C1NC(=O)C2(CCCCCCCCCC2)C(=O)N1` gave a logD [27] of 3.15.

Compound `Nc1ccn(C2OC(CCl)C(O)C2O)c(=O)n1` (stereo not drawn) has a logP [21] of -1.05.
